Test results from patent US9834564B2, “Substituted quinolines as PDE-10 inhibitors” (priority 2010, dated 2017).

These compounds were tested against recombinant human PDE-10 enzyme (PDE-10A) (Homo sapiens (Human), UniProt Q9Y233) (assay: IMAP PDE Fluorescence Polarization assay, human PDE-10 inhibition (enzyme assay)). Details: recombinant human PDE-10, fluorescein-labeled cAMP/cGMP substrate, 40 min at 37° C.
Type: biochemical
Description: In one embodiment, the compounds provided herein were assayed for their ability to inhibit human PDE-10A. In one embodiment, the activities of the compounds were determined using the Molecular Devices IMAP PDE Fluorescence Polarization assay using recombinant human PDE-10 enzyme expressed in a baculoviral system. Briefly, 10 μL of a compound (0.2 nM-20 μM) was added to either a 96-well half area black plate or a 384-well black plate along with 10 μL of Fluorescein-labeled cAMP/cGMP substrate as per manufacturer's instructions and 10 μL of PDE enzyme (activity 0.1 U). Following a 40-minute incubation at 37° C., 60 μL of IMAP binding reagent was added. […] The data was analyzed using Prism Software (GraphPad Inc, San Diego, Calif.).

recombinant human PDE-10 enzyme (PDE-10A), sequence (Q9Y233 whole entry): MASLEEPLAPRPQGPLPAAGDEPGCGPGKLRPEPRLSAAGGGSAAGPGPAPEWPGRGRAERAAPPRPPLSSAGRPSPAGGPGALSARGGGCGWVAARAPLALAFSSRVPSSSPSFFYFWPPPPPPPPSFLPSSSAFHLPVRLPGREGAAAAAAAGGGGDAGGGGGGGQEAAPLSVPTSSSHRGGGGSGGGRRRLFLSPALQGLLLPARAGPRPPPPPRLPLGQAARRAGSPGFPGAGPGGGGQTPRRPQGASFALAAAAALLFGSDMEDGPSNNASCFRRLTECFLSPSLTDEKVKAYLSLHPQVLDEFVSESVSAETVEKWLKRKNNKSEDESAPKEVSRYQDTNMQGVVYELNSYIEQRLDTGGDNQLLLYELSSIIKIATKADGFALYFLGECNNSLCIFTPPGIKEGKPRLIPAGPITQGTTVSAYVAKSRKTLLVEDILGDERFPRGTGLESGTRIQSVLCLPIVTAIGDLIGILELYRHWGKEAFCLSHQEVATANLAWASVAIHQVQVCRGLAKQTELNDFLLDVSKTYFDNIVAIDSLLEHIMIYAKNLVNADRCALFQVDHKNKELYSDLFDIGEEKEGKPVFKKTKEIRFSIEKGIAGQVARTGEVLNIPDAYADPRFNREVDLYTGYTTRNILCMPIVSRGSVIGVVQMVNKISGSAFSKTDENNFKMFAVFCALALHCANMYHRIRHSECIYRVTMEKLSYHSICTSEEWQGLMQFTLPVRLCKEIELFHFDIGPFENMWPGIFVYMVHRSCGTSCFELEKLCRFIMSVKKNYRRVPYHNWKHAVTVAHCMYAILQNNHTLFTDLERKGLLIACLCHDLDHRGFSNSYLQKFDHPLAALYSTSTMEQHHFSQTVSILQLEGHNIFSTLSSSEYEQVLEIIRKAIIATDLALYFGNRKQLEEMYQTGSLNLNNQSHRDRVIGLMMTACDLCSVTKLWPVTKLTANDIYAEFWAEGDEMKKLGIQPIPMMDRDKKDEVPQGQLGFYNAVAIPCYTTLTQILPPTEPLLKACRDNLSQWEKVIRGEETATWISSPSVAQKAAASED

Row | Structure (SMILES) | IC50
1 | Cn1c(CCc2cnc3ccccc3n2)nc2c3ncccc3ccc21 [Compound 154] | < 500 nM
2 | c1cnc2c(c1)ccc1ccc(CCc3nc4ccccn4n3)nc12 [Compound 156] | < 500 nM
3 | c1cnc2c(c1)ccn1nc(CCc3cnc4ccccc4n3)nc21 [Compound 157] | < 500 nM
4 | c1cnc2c(c1)ccc1ccc(CCc3cnc4ccccc4n3)nc12 [Compound 158] | < 500 nM
5 | c1ccc2nc(CCc3ccc4ccc5cccnc5c4n3)ccc2c1 [Compound 159] | < 500 nM
6 | COc1cccc2ccc(CCc3nc4c5ncccc5ccc4n3C)nc12 [Compound 160] | 500 to 1000 nM
7 | COc1cccc2ccc(CCc3nc4c5cccnc5ccc4n3C)nc12 [Compound 161] | < 500 nM
8 | COc1cccc2ccc(CCc3ccc4ccc5cccnc5c4n3)nc12 [Compound 162] | 1000 to 10000 nM
9 | Cn1c(CCc2ccc3cnccc3n2)nc2c3ncccc3ccc21 [Compound 163] | < 500 nM
10 | Cc1ncc(C)c2nc(CCc3nc4c5ncccc5ccc4n3C)ccc12 [Compound 164] | < 500 nM
11 | Cc1ncc(C)c2nc(CCc3nc4c5cccnc5ccc4n3C)ccc12 [Compound 165] | < 500 nM
12 | Cc1ncc(C)c2nc(CCc3nc4c(ccc5ncccc54)[nH]3)ccc12 [Compound 166] | < 500 nM
13 | Cc1ncc(C)c2nc(CCc3nc4c5cccnc5ccn4n3)ccc12 [Compound 167] | < 500 nM
14 | Cc1ncc(C)n2nc(CCc3ccc4ccc5c(c4n3)NCCO5)nc12 [Compound 168] | 1000 to 10000 nM
15 | Cc1cc2c(nc(CCc3ccc4ccccc4n3)n2C)c2cccnc12 [Compound 169] | > 10000 nM
16 | Cc1cc2ncccc2c2nc(CCc3ccc4ccccc4n3)n(C)c12 [Compound 170] | < 500 nM
17 | Cn1c(CCc2ccc3ccc4cccnc4c3n2)nc2c3cccnc3ccc21 [Compound 171] | < 500 nM
18 | Cc1cnc(C)c(CCc2nc(-c3ccccc3)cn2C)n1 [Compound 172] | < 500 nM
19 | Cc1ccc(-c2cn(C)c(CCc3cnc4ccccc4n3)n2)cn1 [Compound 173] | > 10000 nM

Row | Structure (SMILES) | IC50
20 | Cc1ccc(-c2cn(C)c(CCc3ccc4ncccc4n3)n2)cn1 [Compound 174] | 500 to 1000 nM
21 | Cc1ncc(CCc2nc(-c3cccnc3)cn2C)nc1C [Compound 175] | 1000 to 10000 nM
22 | c1cnc2ccc(CCc3nc4c5cccnc5ccn4n3)nc2c1 [Compound 176] | < 500 nM
23 | c1cnc2nc(CCc3nc4c5cccnc5ccn4n3)ccc2c1 [Compound 177] | 500 to 1000 nM
24 | Cc1cnc2nc(CCc3nc4c5cccnc5ccn4n3)ccc2c1 [Compound 180] | < 500 nM
25 | Fc1cnc2nc(CCc3nc4c5cccnc5ccn4n3)ccc2c1 [Compound 181] | < 500 nM
26 | FC(F)(F)c1cnc2nc(CCc3nc4c5cccnc5ccn4n3)ccc2c1 [Compound 182] | > 10000 nM
27 | Cc1c(CCc2ccc3cc(F)cnc3n2)nc2c3cccnc3ccn12 [Compound 183] | < 500 nM
28 | Cc1cnc2nc(CCc3nc4c5cccnc5ccn4c3C)ccc2c1 [Compound 184] | < 500 nM
29 | Cc1c(CCc2ccc3cc(C(F)(F)F)cnc3n2)nc2c3cccnc3ccn12 [Compound 185] | 500 to 1000 nM
30 | Cc1ccnc2ccc(CCc3nc4c5cccnc5ccc4n3C)nc12 [Compound 186] | < 500 nM
31 | Cc1ccnc2ccc(CCc3nc4c5cccnc5ccn4c3C)nc12 [Compound 187] | < 500 nM
32 | c1ccc2nc(CCc3nc4c5cccnc5ccn4n3)cnc2c1 [Compound 188] | < 500 nM
33 | c1ccc2nc(CCc3cn4ccc5ncccc5c4n3)cnc2c1 [Compound 189] | < 500 nM
34 | Cc1c(CCc2cnc3ccccc3n2)nc2c3cccnc3ccn12 [Compound 190] | < 500 nM
35 | Cn1c(CCc2cnc3cccc(Cl)c3n2)nc2c3cccnc3ccc21 [Compound 191] | < 500 nM
36 | Cn1c(CCc2cnc3ccccc3n2)nc2c3c(ccc21)NCCC3 [Compound 192] | < 500 nM
37 | Cn1c(CCc2nc(C(F)(F)F)cc(C(F)(F)F)n2)nc2c3cccnc3ccc21 [Compound 194] | < 500 nM
38 | c1cnc2nc(CCc3cn4ccc5ncccc5c4n3)ccc2c1 [Compound 195] | 1000 to 10000 nM
